Here are results for 5 molecules from patent US11680281B2, “Biosynthetic production of steviol glycosides and processes therefore” (Conagen Inc., priority 2016, dated 2023).

For series [1] the following is noted: relative to table sugar (sucrose); cited from earlier work.
A short description of series [2]: Sensory evaluation (taste test) of rebaudiosides against sucrose controls. The format is in vivo. To be noted: rebaudioside 300 ppm in bottled water, room temperature; vs 1.0%, 3.0%, 6.0% sucrose (w/v); panel of 13 volunteer human subjects. On the procedure:
A sensory evaluation of rebaudiosides was performed using sucrose as a control. The sucrose sample was purchased from Sigma-Aldrich and was used to prepared control samples at three different concentrations of 1.0%, 3.0%, and 6.0% sucrose in bottled water (w/v) at room temperature. The rebaudioside was prepared at 300 ppm for sensory evaluation by adding a corresponding mass into 1000 mL of bottled water. The mixture was stirred at room temperature and the steviol glycoside sample was then evaluated against several control sucrose samples at 1.0%, 3.0%, and 6.0% by a panel of 13 volunteer human subjects.

A short description of series [3]: In vitro conversion of Reb D4 to Reb M by recombinant UGT polypeptides, HPLC analysis. Format: biochemical. To be noted: 10 μg polypeptide, 1 mg/ml Reb D4, 1 mM UDP-glucose, 30° C., 30 min and 1 hr; compared with UGT76G1. How it is done:
In this Example, to confirm the conversion of Reb D4 to rebaudioside M in vitro, the UGT76G1, CP1 and enzyme mutants were assayed using Reb D4 as the steviol glycoside substrate. The recombinant polypeptide (10 μg) was tested in a 200 μL in vitro reaction system. The reaction system contained 50 mM potassium phosphate buffer, pH 7.2, 3 mM MgCl2, 1 mg/ml steviol glycoside substrate, and 1 mM UDP-glucose. The reaction was performed at 30° C. and terminated by adding 200 μL of 1-butanol. The samples were extracted three times with 200 μL of 1-butanol. The pooled fraction was dried and dissolved in 70 μL of 80% methanol for high-performance liquid chromatography (HPLC) analysis. Rebaudioside D4 were used as substrate. HPLC analysis was performed using a Dionex UPLC ultimate 3000 system (Sunnyvale, Calif.), including a quaternary pump, a temperature controlled column compartment, an auto sampler and a UV absorbance detector. Synergi Hydro-RP column with guard column was used for the characterization of steviol glycosides. Acetonitrile in water was used for elution in HPLC analysis. The detection wavelength was 210 nm.

As for `C=C1C[C@@]23CC[C@H]4[C@@](C)(CCC[C@@]4(C)C(=O)O[C@@H]4O[C@H](CO)[C@@H](O)[C@H](O)[C@H]4O)[C@@H]2CC[C@]1(O[C@@H]1O[C@H](CO)[C@@H](O)[C@H](O)[C@H]1O[C@@H]1O[C@H](CO)[C@@H](O)[C@H](O)[C@H]1O)C3` [stevioside], the “sweetness relative to sucrose (times sweeter than sucrose)” value in series [1] is on record as 100-150 times.

For `C=C1C[C@@]23CC[C@H]4[C@@](C)(CCC[C@@]4(C)C(=O)OC4OC(CO)C(O)C(OC5OC(CO)C(O)C(O)C5O)C4OC4OC(CO)C(O)C(O)C4O)[C@@H]2CC[C@]1(O)C3` (some centres unmarked) [Reb WB2], the “Fold increase in sweetness relative to sucrose” value in series [2] is on record as 79 fold.

In the case of `C=C1C[C@@]23CC[C@H]4[C@@](C)(CCC[C@@]4(C)C(=O)OC4OC(CO)C(O)C(OC5OC(CO)C(O)C(O)C5O)C4OC4OC(CO)C(O)C(O)C4O)[C@@H]2CC[C@]1(OC1OC(CO)C(O)C(O)C1OC1OC(CO)C(O)C(O)C1O)C3` (stereo partly drawn) [Reb D4, 13-[(2-O-β-D-glucopyranosyl-β-D-glucopyranosyl)oxy] ent-kaur-16-en-19-oic acid-[(2-O-β-D-glucopyranosyl-3-O-β-D-glucopyranosyl-β-D-glucopyranosyl) ester]], in series [2], the “Fold increase in sweetness relative to sucrose” value was 109 fold.

With `C=C1C[C@@]23CC[C@H]4[C@@](C)(CCC[C@@]4(C)C(=O)OC4OC(CO)C(O)C(OC5OC(CO)C(O)C(O)C5O)C4OC4OC(CO)C(O)C(O)C4O)[C@@H]2CC[C@]1(OC1OC(CO)C(O)C(O)C1O)C3` (some centres unmarked) [Reb WB1], the “Fold increase in sweetness relative to sucrose” value in series [2] amounted to 133 fold.

B1: CP1: circular permutation of UGT76G1 enzyme (SEQ ID NO: 3) (protein)
chain: MNWQILKEILGKMIKQTKASSGVIWNSFKELEESELETVIREIPAPSFLIPLPKHLTASSSSLLDHDRTVFQWLDQQPPSSVLYVSFGSTSEVDEKDFLEIARGLVDSKQSFLWVVRPGFVKGSTWVEPLPDGFLGERGRIVKWVPQQEVLAHGAIGAFWTHSGWNSTLESVCEGVPMIFSDFGLDQPLNARYMSDVLKVGVYLENGWERGEIANAIRRVMVDEEGEYIRQNARVLKQKADVSLMKGGSSYESLESLVSYISSLENKTETTVRRRRRIILFPVPFQGHINPILQLANVLYSKGFSITIFHTNFNKPKTSNYPHFTFRFILDNDPQDERISNLPTHGPLAGMRIPIINEHGADELRRELELLMLASEEDEEVSCLITDALWYFAQSVADSLNLRRLVLMTSSLFNFHAHVSLPQFDELGYLDPDDKTRLEEQASGFPMLKVKDIKSAYS
modifications: CP1 amino acid sequence
On to B1, for which, in series [3], the “enzymatic activity, transfer of one glucose to Reb D4 to form Reb M” value is given as “significantly higher enzymatic activity than UGT76G1”.
